Converted amounts (≈) assume the structure as drawn. Where a name gives a salt, the structure may show the parent alone. Read-outs that look alike come from different tables or passages of the source.
How the values were obtained:
[1] = tested on: Neuronal cortical cells treated with Aβ1-42; test: Assay 3(c) Aβ neurotoxicity and Aβ neuroprotection (MTS); format: cell-based, mouse; details: 20 uM Aβ1-42, 4 days
Description: Primary Cortical Neuronal Cultures
Cortical cultures were prepared as previously described (White et al., 1998). Embryonic day 14 BL6Jx129sv mouse cortices were removed, dissected free of meninges and dissociated in 0.025% (wt/vol) trypsin. Dissociated cells were plated in 48 well culture plates at a density of 2×10^6 cells/mL in MEM with 25% (vol/vol) FCS and 5% (vol/vol) HS and incubated at 37° C., 2 hrs. Media was then replaced with Neurobasal media (Invitrogen Life Technologies) and B27 supplements (Invitrogen Life Technologies). Cultures were maintained at 37° C. in 5% CO2. Prior to experimentation, the culture medium was replaced with Neurobasal media and B27 minus antioxidants (Invitrogen Life Technologies).
(c) Assay for Aβ Neurotoxicity and Aβ Neuroprotection
Neuronal cortical cells were cultured for five days as per Assay 2. On day six the neurobasal (NB) media (Invitrogen Life Technologies) and B27 supplement (Invitrogen Life Technologies) were replaced with NB media and B27 supplement (no antioxidants). On day six, test compounds were individually added to the neuronal cell cultures:
(§1) The test compounds were dissolved in 100% DMSO to a concentration of 2.5 mM (10 mM if excess compound was weighed out per vial—then diluted to 2.5 mM). 2.5 mM stock solution was serially diluted 1 in 10 to give working solutions of 250 uM, 25 uM, 2.5 uM.
Aβ was initially dissolved in 20 mM NaOH to a concentration of 1 mM and sonicated for 5 minutes. The peptide was then diluted in H2O and 10×PBS to a final concentration of 200 uM Aβ in 1×PBS. The peptide was again sonicated for 5 minutes and then spun at 14000 rpm for 5 min and transferred to a fresh tube.
as §1, with “in 10 [in NB media and B27 (no antioxidants)] to give” for “in 10 to give”, “2.5 uM. Test compounds were not added directly to cells, instead they were added to a 48 well ‘Drug Plate’ as comprised below:” for “2.5 uM.”
Preparation of “Drug Plate”:
• Well 1: 515 ul NB+B27(no antioxidant)*+24 ul 25 uM test compound+60 ul Aβ diluent** • Well 2: 515 ul NB+B27(no antioxidant)+24 ul 250 uM test compound+60 ul Aβ diluent • Well 3: 515 ul NB+B27(no antioxidant)+24 ul test compound diluent***+60 ul Aβ1-42 • Well 4: 515 ul NB+B27(no antioxidant)+24 ul 2.5 uM test compound+60 ul Aβ1-42 • Well 5: 515 ul NB+B27(no antioxidant)+24 ul 25 uM test compound+60 ul Aβ1-42 • Well 6: 515 ul NB+B27(no antioxidant)+24 ul 250 uM test compound+60 ul […] • Well 7: 515 ul NB+B27(no antioxidant)+24 ul test compound diluent+60 ul Aβ1-42 diluent • Well 8: 600 ul NB+B27(no antioxidant) • N.B. 60 ul Aβ1-42 equals 20 ul Aβ1-42 per well equals 20 uM Aβ1-42
The Drug Plate was incubated at 37° C. for 15 mins. 200 ul of each well was added in triplicate to the corresponding cell plate. The cell plate was incubated at 37 C, for 4 days. • * NB media+B27 (no antioxidants), • ** Aβ diluent 2 mM NaOH, 1×PBS • *** PBT diluent 10% DMSO in NB+B27(no antioxidant) Completion of the Assay:
On the 4th day after treating the cells the assay is completed by adding MTS to the cells.

[2] = Phase II clinical trial: plasma metal levels (ICP-MS); format: in vivo, human; details: AD patients, oral
Text: (§2) Study design: The study was a double blind, placebo-controlled, parallel group randomized design. […] The duration of the study was 36 weeks.
Blood samples were collected by antecubital venepuncture except on weeks 12, 24 and 36 when they were collected by an indwelling catheter. […] Zn data from these intervals were therefore omitted from analysis.
Outcome measures: The primary clinical efficacy variable was a change from baseline score on the ADAS-cog conducted at baseline and at weeks 4, 12, 24 and 36. This measure was chosen to allow comparability of treatment effects with current therapeutics such as donepezil, where efficacy trials also used ADAS-cog as their primary outcome measure (Rogers et al., 1998). Although numerous neuropsychological tests could be considered as secondary measures, it was necessary to avoid fatiguing the subjects at review. Therefore the only other cognitive test was the Mini-Mental State Exam (MMSE). The CIBIC+ (clinician interview based impression of change incorporating caregiver information), a subjective observational index was also conducted. Plasma Aβ, and plasma zinc and copper were all taken every four weeks.
Metal levels: Metals were measured by inductively coupled plasma mass spectrometry as previously described (Cherny et al., 2001).

[3] = tested on: moderately severe AD patients; test: Phase II clinical trial in Alzheimer's disease: cognition (ADAS-cog); format: in vivo, human; details: more-severely affected groups
Text: The performance of the less-severely affected group (ADAS-cog<25) deteriorated negligibly over this interval, so cognitive changes could not be discriminated in this stratum.
Study population: The study took place at the AD clinical trials unit, Mental Health Research Institute of Victoria and at the Royal Melbourne Hospital. Criteria for inclusion in the study were: informed consent; a diagnosis of probable AD by NINCDS-ADRDA criteria (McKhann et al., 1984); AD Assessment Scale-cognitive (ADAS-cog) (Rosen et al., 1984) score of 18-45; Mini Mental State Examination (MMSE) (Folstein et al., 1975) score of 10-24; on donepezil 5 mg or 10 mg for at least 6 months; relative or carer willing and able to support the trial; able to complete trial examinations; primary sensorial functions intact.
as §2
Outcome measures: The primary clinical efficacy variable was a change from baseline score on the ADAS-cog conducted at baseline and at weeks 4, 12, 24 and 36. […]
Data preparation and statistical analysis: Data monitoring and management were undertaken by independent contractors (Kendle International and Health Research Solutions, Melbourne). […] Differences between groups on categorical measures were analysed using exact statistical methods in order to maximise power. […]

[4] = Phase II clinical trial: therapeutic drug monitoring, blood levels by HPLC; format: in vivo; details: human, oral, read-out: Steady state pre-dose blood level
Text: as §2

Aβ 1-42 = target: T1, Aβ 1-42 (Homo sapiens, UniProt P05067); test: Assay 1 Fluorometric H2O2 assay: inhibition of hydrogen peroxide generation by Aβ in the presence of copper; format: biochemical; details: Aβ 1-42 with Cu-Gly, DCF fluorescence
T1 construct: The reaction solutions contained Aβ 1-42
Description: Assay 1. Fluorometric H2O2 Assay
A fluorometric assay was used to test the ability of a test compound to inhibit hydrogen peroxide generation by Aβ in the presence of copper based on dichlorofluoroscein diacetate (DCF; Molecular Probes, Eugene Oreg.). The DCF solution (5 mM) in 100% dimethyl sulphoxide (previously purged with argon for 1 hr at 20° C.) was deacetylated in the presence of 0.025M NaOH for 30 min and neutralised at pH 7.4 to a final concentration of 1 mM. Horseradish peroxidase ([…]) stock solution was prepared to 1 μM at pH 7.4. The reactions were carried out in PBS, pH 7.4 in a 96 well plate (total volume=250 μl/well). The reaction solutions contained Aβ 1-42 at concentrations in the range of 50 nM to 1 μM, copper-glycine chelate (Cu-Gly), was prepared by adding CuCl2 to glycine in the ratio of 1:6 and added to the Aβ in the proportion 2Cu-Gly: 1Aβ), reducing agents including dopamine (5 μM) or ascorbic acid, deacetylated DCF 100 μM, and HRP, 0.1 μM. 1-10 μM EDTA or another chelator may also be present as a control for free copper, but was not required for the assay to function. The reaction mixture was incubated at 37 C for 60 min. Catalase (4000 units/ml) and H2O2 (1-2.5 μM) standards in PBS pH 7.4 may be included as positive controls. Fluorescence was recorded using a plate reader with excitation and emission filters at […] respectively. H2O2 concentration may be established by comparing fluorescence with the H2O2 standards. Inhibition of Aβ H2O2 production was assayed by including a given concentration of test compound(s) in the test wells.

[5] = Assay 12 Turbidimetric solubility measurements; format: physicochemical; details: kinetic from dmso stock, nephelometry
Description: Turbidimetric Solubility Measurements
The solubility estimate was measured at both pH 2.0 and pH 6.5. This is within the pH range that can be anticipated along the proximal gastrointestinal tract in humans.
The compounds were dissolved in DMSO to appropriate concentrations and then spiked into either 0.01M HCl (approx. pH=2.0) or pH 6.5 isotonic phosphate buffer, the final DMSO concentration being 1%. Samples were then analysed via Nephelometry to determine a solubility range. [as per D. Bevan and R. S. Lloyd, Anal. Chem. 2000, 72, 1781-1787].

[6] = aqueous buffer, pH 6.5 isotonic phosphate buffer, 1% DMSO, read-out: Assay 12 Solubility at pH 6.5
[7] = simulated gastric fluid, 0.01 M HCl, pH 2.0, 1% DMSO, read-out: Assay 12 Solubility in 0.01 M HCl, pH 2.0

T1 sequence (P05067 672-713 limits assumed): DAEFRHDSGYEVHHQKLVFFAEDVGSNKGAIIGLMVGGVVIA

| Compound | IC50 (Aβ 1-42) [nM] | Assay 3(c) Neuroprotection (% inhibition of Abeta toxicity) [1] [%] | also measured |
| --- | --- | --- | --- |
| Cc1cnc2c(Cl)cc(Cl)c(O)c2n1 [PBT 1064, 6,8-Dichloro-3-methylquinoxalin-5-ol] | – | 29 | – |
| Oc1c(I)cc(Cl)c2cccnc12 [PBT-1, iodochlorohydroxyquinoline] | – | – | Effect on plasma Cu [2]: no effect; Elevation of total plasma Zn [2]: ≈ 30%; Difference in mean change from baseline ADAS-cog score over placebo ([3]; week 24): 7.37 (95% CI: 1.51-13.24); Difference in mean change from baseline ADAS-cog score over placebo ([3]; week 36): 6.36 (95% CI: −0.50-13.23); concentration at 12 weeks ([4]; 250 mg/day, total daily dosage 250 mg): 4030 ± 2100 ng/mL; concentration at 24 weeks ([4]; 500 mg/day, total daily dosage 500 mg): 6740 ± 3700 ng/mL; concentration at 36 weeks ([4]; 750 mg/day, total daily dosage 750 mg): 7600 ± 2150 ng/mL |
| COC(=O)c1nc(Cl)c2cccnc2c1O [PBT-1045, 5-chloro-8-hydroxy-[1,6]naphthyridine-7-carboxylic acid methyl ester] | 900 | 12 | – |
| Cc1cnc2c(O)c(Cl)cc(Cl)c2n1 [PBT-1065, 6,8-Dichloro-2-methylquinoxalin-5-ol] | – | 7 | – |
| CN(C)Cc1cnc2c(Cl)cc(Cl)c(O)c2n1 [PBT-1066, 6,8-Dichloro-3-(dimethylaminomethyl)quinoxalin-5-ol hydrochloride] | – | – | solubility [5, 6]: > 100 µg/mL; solubility [5, 7]: > 100 µg/mL |
| O=c1[nH]cnc2c(O)c(Cl)cc(Cl)c12 [PBT-1067, 5,7-Dichloro-8-hydroxy-3H-quinazolin-4-one] | 950 | – | solubility [5, 6]: 25 to 50 µg/mL (≈ 108 to 216 µM); solubility [5, 7]: 12.5 to 25 µg/mL (≈ 54.1 to 108 µM) |
| CNCc1ccc2cnc(C(=O)NCc3ccc(F)cc3)c(O)c2n1 [PBT-1070] | 1140 | – | – |

Further lines, with some results ahead:

| IC50 (Aβ 1-42) [nM] | Compound | Assay 3(c) Neuroprotection (% inhibition of Abeta toxicity) [1] [%] | also measured |
| --- | --- | --- | --- |
| 350 | O=c1ccnc2c(O)cccn12 [PBT-1048, 9-hydroxypyrido[1,2-a]pyrimidin-4-one] | 22 | – |
| 1600 | O=c1[nH]cnc2c(O)cccc12 [PBT-1049, 8-hydroxy-3H-quinazolin-4-one] | 11 | – |
| 750 | O=c1c2c(Cl)cc(Cl)c(O)c2ncn1-c1ccc(F)cc1 [PBT-1055, 5,7-Dichloro-3-(4-fluorophenyl)-8-hydroxy-3H-quinazolin-4-one] | 29 | solubility [5, 6]: 3 to 6.3 µg/mL (≈ 9.23 to 19.4 µM); solubility [5, 7]: 3 to 6.3 µg/mL (≈ 9.23 to 19.4 µM) |
| 600 | O=c1c(-c2ccc(Cl)cc2)cnc2c(O)cccn12 [PBT-1069, 3-(4-chlorophenyl)-9-hydroxypyrido[1,2-a]pyrimidin-4-one] | – | – |
